IC50 data for 20 compounds are collected here from patent publication US9233983B2, “Substituted hetero-bicyclic compounds, compositions and medicinal applications thereof” (ADVINUS THERAPEUTICS LIMITED, priority 2012, dated 2016).

The subject of one experiment is mouse splenocytes. Description: Inhibition of B Cell Activation as Measured by CD69 Expression in Mouse Splenocytes. Format: cell-based. The note with it: Splenocyte. A digest of the protocol:
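Total mouse splenocytes pre-incubated with compounds (half-log dilutions; DMSO 200× stocks from 2 mM) 30 min at 37 °C, then stimulated with 3 ug/mL anti-mouse IgM for 18-20 hrs. CD69+ cells within CD19+ B cells quantified by flow cytometry; IC50 from variable-slope sigmoid dose-response fit.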

For experiment [1], the target named is human Bruton's Tyrosine Kinase (Btk) (Homo sapiens (Human), UniProt Q06187). Description: Recombinant Human Bruton's Tyrosine Kinase (Btk) Inhibition Assay (HTRF KinEASE-TK). The class given is biochemical. The settings on record: 20 ng/ml rhBtk, 77 μM ATP (KM), 1 μM TK-Biotin substrate, 90 min; read-out: hBTK IC50. For orientation: In TR-FRET formats the signal depends on donor and acceptor labels being close together.
Chain of human Bruton's Tyrosine Kinase (Btk) (Q06187 whole entry): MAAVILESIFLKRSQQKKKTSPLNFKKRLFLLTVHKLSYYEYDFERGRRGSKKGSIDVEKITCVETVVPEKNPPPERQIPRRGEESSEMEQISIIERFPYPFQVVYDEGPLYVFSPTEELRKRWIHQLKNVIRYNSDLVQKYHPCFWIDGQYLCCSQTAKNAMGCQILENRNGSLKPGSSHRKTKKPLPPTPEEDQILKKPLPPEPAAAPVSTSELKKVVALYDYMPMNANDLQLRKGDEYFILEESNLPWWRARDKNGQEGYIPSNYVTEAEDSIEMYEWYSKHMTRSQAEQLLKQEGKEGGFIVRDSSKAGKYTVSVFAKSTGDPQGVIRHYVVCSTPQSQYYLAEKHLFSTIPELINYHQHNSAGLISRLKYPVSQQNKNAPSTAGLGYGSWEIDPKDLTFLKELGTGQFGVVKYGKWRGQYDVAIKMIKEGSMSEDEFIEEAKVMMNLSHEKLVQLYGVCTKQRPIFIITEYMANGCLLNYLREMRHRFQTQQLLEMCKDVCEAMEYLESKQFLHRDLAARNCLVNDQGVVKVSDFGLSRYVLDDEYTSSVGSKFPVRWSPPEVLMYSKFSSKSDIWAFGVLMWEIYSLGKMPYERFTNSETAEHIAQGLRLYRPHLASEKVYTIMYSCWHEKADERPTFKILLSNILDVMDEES

Where [2] appears, read: C57/BL6 splenocytes, 3 ug/mL goat anti-mouse IgM, 18-20 hrs, CD69+ve cells within CD19, read-out: Mouse spleenocyte IC50.

Read-outs that look alike come from different tables or passages of the source.

For `Cc1c(-c2nc(N)nc3[nH]c(-c4ccc(C(=O)N5CCOCC5)cc4)cc23)cccc1N1CCOc2cc(C3CC3)ccc2C1=O` [Example O-1, 4-[3-[2-amino-6-[4-(morpholine-4-carbonyl)phenyl]-7H-pyrrolo[2,3-d]pyrimidin-4-yl]-2-methyl-phenyl]-8-cyclopropyl-2,3-dihydro-1,4-benzoxazepin-5-one], the IC50 was 171 nM in the experiment on mouse splenocytes (setting [2]) and 55 nM in experiment [1].
On to `CN(C)C(=O)N1CC=C(c2cc3c(-c4cccc(N5CCOc6cc(C7CC7)ccc6C5=O)c4CO)ccnc3[nH]2)CC1` [Example P-5, 4-[4-[3-(8-cyclopropyl-5-oxo-2,3-dihydro-1,4-benzoxazepin-4-yl)-2-(hydroxymethyl)phenyl]-1H-pyrrolo[2,3-b]pyridin-2-yl]-N,N-dimethyl-3,6-dihydro-2H-pyridine-1-carboxamide], for which the results for the IC50 (with mouse splenocytes (setting [2]); in experiment [1]) were 14.6 nM and 2 nM, respectively.
Regarding `CC(C)N1CC(n2cnc(-c3cc4c(-c5cccc(N6CCOc7cc(C8CC8)ccc7C6=O)c5CO)ccnc4[nH]3)c2)C1` [Example P-9, 8-cyclopropyl-4-[2-(hydroxymethyl)-3-[2-[1-(1-isopropylazetidin-3-yl)imidazol-4-yl]-1H-pyrrolo[2,3-b]pyridin-4-yl]phenyl]-2,3-dihydro-1,4-benzoxazepin-5-one], the IC50 in the experiment with mouse splenocytes (setting [2]) is 104 nM; in experiment [1], 7 nM.
The corresponding values for `CN(C)C(=O)N1CC=C(c2cc3c(-c4cccc(N5CCOc6cc(C(C)(C)O)ccc6C5=O)c4CO)ccnc3[nH]2)CC1` [Example P-10, 4-[4-[2-(hydroxymethyl)-3-[8-(1-hydroxy-1-methyl-ethyl)-5-oxo-2,3-dihydro-1,4-benzoxazepin-4-yl]phenyl]-1H-pyrrolo[2,3-b]pyridin-2-yl]-N,N-dimethyl-3,6-dihydro-2H-pyridine-1-carboxamide] are 94 nM and 6 nM.
Consider `CN(C)C(=O)N1CC=C(c2cc3c(-c4cccc(N5CCOc6cc(C7CC7)cc(F)c6C5=O)c4CO)ccnc3[nH]2)CC1` [Example P-14, 4-[4-[3-(8-cyclopropyl-6-fluoro-5-oxo-2,3-dihydro-1,4-benzoxazepin-4-yl)-2-(hydroxymethyl)phenyl]-1H-pyrrolo[2,3-b]pyridin-2-yl]-N,N-dimethyl-3,6-dihydro-2H-pyridine-1-carboxamide], for which the IC50 in the experiment on mouse splenocytes (setting [2]) was 5.8 nM; in experiment [1], 1 nM.
Turning to `CC1(O)CN(C(=O)N2CC=C(c3cc4c(-c5cccc(N6CCOc7cc(C8CC8)cc(F)c7C6=O)c5CO)ccnc4[nH]3)CC2)C1` [Example P-15, 8-cyclopropyl-6-fluoro-4-[2-(hydroxymethyl)-3-[2-[1-(3-hydroxy-3-methyl-azetidine-1-carbonyl)-3,6-dihydro-2H-pyridin-4-yl]-1H-pyrrolo[2,3-b]pyridin-4-yl]phenyl]-2,3-dihydro-1,4-benzoxazepin-5-one], the IC50 with mouse splenocytes (setting [2]) is 14.7 nM; in experiment [1] it was 1 nM.
For the compound `O=C(N1CC=C(c2cc3c(-c4cccc(N5CCOc6cc(C7CC7)cc(F)c6C5=O)c4CO)ccnc3[nH]2)CC1)N1CCOCC1` [Example P-18, 8-cyclopropyl-6-fluoro-4-[2-(hydroxymethyl)-3-[2-[1-(morpholine-4-carbonyl)-3,6-dihydro-2H-pyridin-4-yl]-1H-pyrrolo[2,3-b]pyridin-4-yl]phenyl]-2,3-dihydro-1,4-benzoxazepin-5-one], the IC50 with mouse splenocytes (setting [2]) amounted to 5.4 nM; in experiment [1], 1.7 nM.
The corresponding values for `CCN(CC)C(=O)N1CC=C(c2cc3c(-c4cccc(N5CCOc6cc(C7CC7)cc(F)c6C5=O)c4CO)ccnc3[nH]2)CC1` [Example P-19, 4-[4-[3-(8-cyclopropyl-6-fluoro-5-oxo-2,3-dihydro-1,4-benzoxazepin-4-yl)-2-(hydroxymethyl)phenyl]-1H-pyrrolo[2,3-b]pyridin-2-yl]-N,N-diethyl-3,6-dihydro-2H-pyridine-1-carboxamide] are 20 nM and 14.6 nM.
As to `O=C1c2c(F)cc(C3CC3)cc2OCCN1c1cccc(-c2ccnc3[nH]c(C4=CCN(C5CCOC5)CC4)cc23)c1CO` (stereo not shown) [Example P-21, 8-cyclopropyl-6-fluoro-4-[2-(hydroxymethyl)-3-[2-(1-tetrahydrofuran-3-yl-3,6-dihydro-2H-pyridin-4-yl)-1H-pyrrolo[2,3-b]pyridin-4-yl]phenyl]-2,3-dihydro-1,4-benzoxazepin-5-one], the values for the IC50 (with mouse splenocytes (setting [2]); in experiment [1]) were 59 nM and 4 nM, respectively.
`O=C(CN1CC=C(c2cc3c(-c4cccc(N5CCOc6cc(C7CC7)cc(F)c6C5=O)c4CO)ccnc3[nH]2)CC1)N1CCC1` [Example P-22, 4-[3-[2-[1-[2-(azetidin-1-yl)-2-oxo-ethyl]-3,6-dihydro-2H-pyridin-4-yl]-1H-pyrrolo[2,3-b]pyridin-4-yl]-2-(hydroxymethyl)phenyl]-8-cyclopropyl-6-fluoro-2,3-dihydro-1,4-benzoxazepin-5-one]: the results for the 50% inhibitory concentration (IC50) (in the experiment on mouse splenocytes (setting [2]); in experiment [1]) were 57 nM and 1.2 nM, respectively.
The corresponding values for `CC(C)(O)CN1CC=C(c2cc3c(-c4cccc(N5CCOc6cc(C7CC7)cc(F)c6C5=O)c4CO)ccnc3[nH]2)CC1` [Example P-23, 8-cyclopropyl-6-fluoro-4-[2-(hydroxymethyl)-3-[2-[1-(2-hydroxy-2-methyl-propyl)-3,6-dihydro-2H-pyridin-4-yl]-1H-pyrrolo[2,3-b]pyridin-4-yl]phenyl]-2,3-dihydro-1,4-benzoxazepin-5-one] are 75 nM and 1.4 nM.
In the case of `CC(=O)N1CC=C(c2cc3c(-c4cccc(N5CCOc6cc(C7CC7)cc(F)c6C5=O)c4CO)ccnc3[nH]2)CC1` [Example P-24, 4-[3-[2-(1-acetyl-3,6-dihydro-2H-pyridin-4-yl)-1H-pyrrolo[2,3-b]pyridin-4-yl]-2-(hydroxymethyl)phenyl]-8-cyclopropyl-6-fluoro-2,3-dihydro-1,4-benzoxazepin-5-one], the values for the 50% inhibitory concentration (IC50) (in the experiment with mouse splenocytes (setting [2]); in experiment [1]) were 11 nM and 3.6 nM, respectively.
As for `O=C1c2c(F)cc(C3CC3)cc2OCCN1c1cccc(-c2ccnc3[nH]c(C4=CCN(C5CCOCC5)CC4)cc23)c1CO` [Example P-26, 8-cyclopropyl-6-fluoro-4-[2-(hydroxymethyl)-3-[2-(1-tetrahydropyran-4-yl-3,6-dihydro-2H-pyridin-4-yl)-1H-pyrrolo[2,3-b]pyridin-4-yl]phenyl]-2,3-dihydro-1,4-benzoxazepin-5-one], the half-maximal inhibitory concentration (IC50) with mouse splenocytes (setting [2]) turned out to be 162 nM; in experiment [1], 3.4 nM.
The corresponding values for `N#CCC(=O)N1CC=C(c2cc3c(-c4cccc(N5CCOc6cc(C7CC7)cc(F)c6C5=O)c4CO)ccnc3[nH]2)CC1` [Example P-27, 3-[4-[4-[3-(8-cyclopropyl-6-fluoro-5-oxo-2,3-dihydro-1,4-benzoxazepin-4-yl)-2-(hydroxymethyl)phenyl]-1H-pyrrolo[2,3-b]pyridin-2-yl]-3,6-dihydro-2H-pyridin-1-yl]-3-oxo-propanenitrile] are 50 nM and 1.2 nM.
Turning to `O=C(CN1CCC1)N1CC=C(c2cc3c(-c4cccc(N5CCOc6cc(C7CC7)cc(F)c6C5=O)c4CO)ccnc3[nH]2)CC1` [Example P-28, 4-[3-[2-[1-[2-(azetidin-1-yl)acetyl]-3,6-dihydro-2H-pyridin-4-yl]-1H-pyrrolo[2,3-b]pyridin-4-yl]-2-(hydroxymethyl)phenyl]-8-cyclopropyl-6-fluoro-2,3-dihydro-1,4-benzoxazepin-5-one], the half-maximal inhibitory concentration (IC50) in the experiment on mouse splenocytes (Mus musculus, read-out: Mouse spleenocyte IC50 (nM)) came out at 63 nM; in experiment [1], 3.1 nM.
For `CC(O)C(=O)N1CC=C(c2cc3c(-c4cccc(N5CCOc6cc(C7CC7)cc(F)c6C5=O)c4CO)ccnc3[nH]2)CC1` (stereo not shown) [Example P-29, 8-cyclopropyl-6-fluoro-4-[2-(hydroxymethyl)-3-[2-[1-(2-hydroxypropanoyl)-3,6-dihydro-2H-pyridin-4-yl]-1H-pyrrolo[2,3-b]pyridin-4-yl]phenyl]-2,3-dihydro-1,4-benzoxazepin-5-one], the IC50 in the experiment on mouse splenocytes (setting [2]) stood at 8 nM; in experiment [1] it was 1.3 nM.
As for `O=C(CO)N1CC=C(c2cc3c(-c4cccc(N5CCOc6cc(C7CC7)cc(F)c6C5=O)c4CO)ccnc3[nH]2)CC1` [Example P-30, 8-cyclopropyl-6-fluoro-4-[3-[2-[1-(2-hydroxyacetyl)-3,6-dihydro-2H-pyridin-4-yl]-1H-pyrrolo[2,3-b]pyridin-4-yl]-2-(hydroxymethyl)phenyl]-2,3-dihydro-1,4-benzoxazepin-5-one], the half-maximal inhibitory concentration (IC50) amounted to 11 nM with mouse splenocytes (setting [2]) and 1 nM in experiment [1].
Consider `NC(=O)CN1CC=C(c2cc3c(-c4cccc(N5CCOc6cc(C7CC7)cc(F)c6C5=O)c4CO)ccnc3[nH]2)CC1` [Example P-31, 2-[4-[4-[3-(8-cyclopropyl-6-fluoro-5-oxo-2,3-dihydro-1,4-benzoxazepin-4-yl)-2-(hydroxymethyl)phenyl]-1H-pyrrolo[2,3-b]pyridin-2-yl]-3,6-dihydro-2H-pyridin-1-yl]acetamide], for which the IC50 in the experiment on mouse splenocytes (setting [2]) stood at 52 nM; in experiment [1] it was 5.3 nM.
Turning to `CC(=O)N1CC(N2CC=C(c3cc4c(-c5cccc(N6CCOc7cc(C8CC8)cc(F)c7C6=O)c5CO)ccnc4[nH]3)CC2)C1` [Example R-1, 4-[3-[2-[1-(1-acetylazetidin-3-yl)-3,6-dihydro-2H-pyridin-4-yl]-1H-pyrrolo[2,3-b]pyridin-4-yl]-2-(hydroxymethyl)phenyl]-8-cyclopropyl-6-fluoro-2,3-dihydro-1,4-benzoxazepin-5-one], the 50% inhibitory concentration (IC50) with mouse splenocytes (setting [2]) turned out to be 75 nM; in experiment [1], 2.2 nM.
On to `CCN1CC(N2CC=C(c3cc4c(-c5cccc(N6CCOc7cc(C8CC8)cc(F)c7C6=O)c5CO)ccnc4[nH]3)CC2)C1` [Example R-2, 8-cyclopropyl-4-[3-[2-[1-(1-ethylazetidin-3-yl)-3,6-dihydro-2H-pyridin-4-yl]-1H-pyrrolo[2,3-b]pyridin-4-yl]-2-(hydroxymethyl)phenyl]-6-fluoro-2,3-dihydro-1,4-benzoxazepin-5-one], for which the figures for the IC50 (in the experiment on mouse splenocytes (setting [2]); in experiment [1]) were 21 nM and 1.5 nM, respectively.

As usually defined, the IC50 is the concentration needed to halve the response being measured.
